This is an account of results in paper PMC11040648, “Highly tunable bimane-based fluorescent probes: design, synthesis, and application as a selective amyloid binding dye” (Chemical Science, 2024).

This test deals with T1, tau (fibrils) (Homo sapiens, UniProt P10636).
T1 construct: gene MAPT; tau amyloid fibrils
In words: fluorescence turn-on with […] fibrils ([…] lower than αS), emission maximum […] nm. Type of test: binding.

T1 sequence (P10636 1-441 isoform P10636-8): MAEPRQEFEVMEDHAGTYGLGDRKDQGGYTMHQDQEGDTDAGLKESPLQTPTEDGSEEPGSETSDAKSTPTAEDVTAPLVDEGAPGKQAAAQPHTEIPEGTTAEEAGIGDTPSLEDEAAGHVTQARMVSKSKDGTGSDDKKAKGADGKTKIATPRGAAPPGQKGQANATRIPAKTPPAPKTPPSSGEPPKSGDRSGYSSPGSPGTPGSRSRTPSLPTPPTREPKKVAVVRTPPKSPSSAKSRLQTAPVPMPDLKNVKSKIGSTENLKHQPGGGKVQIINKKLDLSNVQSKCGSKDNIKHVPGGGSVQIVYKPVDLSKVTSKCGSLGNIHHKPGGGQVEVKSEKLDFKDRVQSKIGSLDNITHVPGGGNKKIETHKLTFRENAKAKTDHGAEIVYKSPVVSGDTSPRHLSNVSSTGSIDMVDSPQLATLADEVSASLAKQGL

For the compound `Cc1c(C)n2c(/C=C/c3ccc(N(C)C)cc3)c(C)c(=O)n2c1=O` [5k], the “fluorescence turn-on with 10 μM fibrils (2.8-fold lower than αS), emission maxim” value was “although 5k binds to both αS and tau, it has a greater fluorescence activation”.
